Assay type in all cases: cell-based, human
For assay [1], the system named is breast tumor cells MDA-MB-453. Put plainly: MTT cell viability assay. Conditions: for cell viability: FIG. 24. Here is the method:
(§1) The breast tumor cells (MDA-MB-231, MDA-MB-435, MDA-MB-453, MDA-MB-468 and MCF-7) were commercially obtained from the bioresource collection and research center (BCRC), and were cultured in a 10% FBS-DMEM culture medium (i.e., a DMEM culture medium including 10% fetal bovine serum (FBS)). The human breast cell MCF-10A was cultured in a 5% FBS-DMEM culture medium (including F12, insulin, hydrocortisol and epidermal growth factor). An environment of 5% CO2 was kept in the incubator at a constant temperature of 37° C. When a certain number of cells were generated in culture, the culture medium was removed after being centrifuged for 10 min at a rate of 900 rpm. The culture medium was replaced in 24 h before the experiment, and the number of cells was counted by a hemocytometer.
(§2) The cell viability was determined by a method of […] (MTT assay). The test method for assaying cell viability refers to steps provided by Parada-Turska et al.
(§3) The breast tumor cells MDA-MB-231 were inoculated in a 24-well plate (2.5×10^5 cells/well), and the next day after cells were adhered to the wall of the plate, the cells were washed with PBS. 1% FBS-DMEM culture medium was then added so as to synchronize cells. The next day compound II having different concentrations were added into the wells, and the cells were subsequently cultured in an atmosphere of 5% CO2 at 37° C. for 24 h. The cells were washed with PBS once, and 400 μl MTT agent was added in each well so as to react for 4 h. Then 400 μl 10% SDS was added in each well so as to react for 12 h. 200 μl supernatant was taken from the well and then added into a 96-well microplate, so as to measure the absorbance at 570 nm.
In the MTT assay, the MDA-MB-453 cells were cultured in a culture medium including 5% fetal bovine serum-DMEM F12/insulin/hydrocortisol/epidermal growth factor. Then the cells were cultured at an atmosphere of 5% CO2 in an incubator at a constant temperature of 37° C. When a certain number of cells were generated in culture, the culture medium was removed after being centrifuged at 900 rmp for 10 min. The culture medium was replaced in 24 h before the experiment, and the number of cells was counted by a hemocytometer.
(In general: Tetrazolium assays rely on reduction of a dye to a coloured formazan, in cell work by metabolically active cells.)

In assay [2] the test system is breast tumor cells MDA-MB-231. Put plainly: MTT cell viability assay. Particulars: for IC50: Homo sapiens; for cell viability: FIG. 13. Here is the method:
as §1, §2, §3
FIG. 13 separately illustrates the viabilities of cells treated with the compound II in different doses, and whether the viabilities of cells were recovered when the cells were treated with both the compound II and the antioxidant NAC, so as to illustrate the effect of increased reactive oxygen species caused by the compound II on the tumor cell proliferation. The test method for measuring the cell viability refers to steps described in test example 2-1. The breast tumor cells MDA-MD-231 were treated with the compound II of 0, 2, 5, 7.5, 10 and 15 μM for 24 h, and then the effect of the compound II on viability of breast tumor cells MDA-MD-231 was observed. FIG. 13 is a quantitative diagram, the data result was represented by mean±SD values, where n=3.

The test system of assay [3] is breast tumor cells MDA-MB-231. Description: colony formation assay. Conditions: MDA-MB-231, 24 h treatment, FIG. 1B. The source says:
In order to know the effect of the compound II on the colony formation of the breast tumor cells MDA-MB-231, the cells were observed through a colony formation assay.

Assay [4] has as its system Normal Endothelial Cell (EAhy926 cell strain). Put plainly: MTT cell viability assay. How it is done: as §2
as §3, with “Then 400 μl 10% SDS was added in each well so as to react for 12 h.” left out
In the MTT assay, the umbilical vein endothelial cells (EAhy926 cell strain) was planted 80 percent full and cultured in a 1×HAT culture medium including 15% FBS-DMEM, 1% glutamine and 1% PSN (used for screening cells having the characteristic of cell fusion). […] The culture medium was replaced in 24 h before the experiment, and the number of cells was counted by a hemocytometer. […] The supernatant was taken and putted into a 96-well microplate, and then the absorbance was measured at a wavelength of 570 nm.

Like-named read-outs stand apart in the source and are kept apart here.

The values that follow come from patent US20150087722A1, “TREATMENT FOR BREAST TUMOR CELL METASTASIS” (China Medical University, priority 2012, published 2015).

A word on the IC50: it is the point on the concentration scale where inhibition reaches its midpoint. With `COC1=C(OC)C(=O)C(C)=C(C)C1=O` [compound II], the cell viability entry is listed as “recovered” in assay [1] (40 μM with 2.5 mM antioxidant NAC); “half of that in the control group” in assay [1] (40 μM, compound only); “significantly decreased” in assay [2] (MDA-MB-231, 2-15 μM, 24 h); “not influenced” in assay [2] (MDA-MB-231, with antioxidant NAC); “significantly decreased” in assay [4] (EAhy926, concentration above 10 μM, 10 ng/mL TNF-α/TGF stimulation, FIG. 18). The IC50 in assay [1] (Homo sapiens, viability, MDA-MB-453 cell strain, Table 1) is 36.7 µM; in assay [2] (MDA-MB-231, 0-40 μM for 24 h, FIG. 1A, read-out: IC50 for inhibiting the MDA-MB-231) it was ~6.5 µM; in assay [2] (viability, MDA-MB-231 cell strain, Table 1, read-out: IC50), 7.51 µM; in assay [4] (Homo sapiens, EA.hy 926, viability, EAhy926 cell strain), 35.1 µM. Further, the “viability of breast tumor cells” value in assay [1] (MDA-MB-453, with increasing concentration, FIG. 21) is given as “inhibited significantly”. The “colony formation of breast tumor cells” value in assay [3] is given as “significantly inhibit colony formation”.
